Here are results for 1 molecule from US4009181A, “Cyclopenta[b]indole-2-carboxylic acids and derivatives thereof” (Hoffmann-La Roche Inc., priority 1974, dated 1977).

Data set [1] can be described thus: LD50 p.o. in mice (acute toxicity). It counts as in vivo.
The nature of data set [2]: analgesic activity: hot plate reaction time. It counts as in vivo, male mice. Particulars: mice; dose ranging from 38 mg. to about 220 mg. As to the method: The method determines the reaction time of mice dropped onto a hot plate maintained at 55±0.5° C. Six groups of male mice (5 mice/group) weighing between 20-30 grams are utilized. The initial reaction time of these mice is determined once, and the reaction time of each group is then averaged. The mice are then administered the vehicle and/or the compound to be tested by the oral, intraperitoneal or subcutaneous route. The average reaction time of each group is determined again at 30, 60 and 90 minutes after compound administration and is compared to controls. Reaction time is recorded as percent changes from control. All groups are averaged before and after treatment. A combined reaction time average (recorded as percent change of reaction time threshhold from controls) for all three periods is plotted against dose on graph paper, and a curve is drawn. The ED 50 is read from this curve.

Data set [3] can be described thus: antipyretic activity: Brewer's yeast foot injection, foot and rectal temperatures. Particulars: rats; 200 mg/kg. Type of data set: in vivo, male rats. As to the method:
Control animals are given 1 cc/100 g. body weight of the vehicle. The test drug animals are given 200 mg/kg. of the drug in a concentration of 2 percent. Soluble and insoluble compounds are administered orally in aqueous suspended vehicle. One hour after administration of drug, these rats are injected with 0.1 ml. of a 2 percent suspension of Brewer's yeast beneath the plantar surface of the foot. Two hours after drug injections and 1 hour after the irritant, the temperatures of the inflammed foot, the normal foot and the rectum are recorded with the help of a thermocouple. Results are reported as degrees change from controls. The temperatures are averaged for the inflamed foot, the normal foot and the rectum. The averages for the treated groups are compared with the control averages and the results noted as degrees change from control.

Turning to `O=C(O)C1CCc2c([nH]c3ccc(Cl)cc23)C1` (stereo not drawn) [6-chloro-1,2,3,4-tetrahydrocarbazole-2-carboxylic acid], the LD50 in data set [1] is reported as 1120 mg. The analgesic activity result in data set [2] is “analgesic activity is observed”. For the same molecule, the antipyretic activity entry in data set [3] was “antipyretic activity is observed”.
